Assays:
PPIase KS-1-AADC [1] = molecular target: T1, PPIase KS-1-AADC (Pseudomonas putida, UniProt Q88JU5); assay: HPLC of dopamine formation, cell-free extract; assay type: biochemical; conditions: 1 mM L-dopa, 50 uM PLP, 2 mM 2-ME, 50 mM potassium phosphate pH 8.0, 30 °C
T1 construct: gene PP_2552; AADC with N-terminal solubility partner Thermococcus sp; not cut; E. coli BL21(DE3)

NusA-AADC = molecular target: T2, NusA-AADC (Pseudomonas putida, UniProt Q88JU5); assay: HPLC of dopamine formation, cell-free extract; assay type: biochemical; conditions: 1 mM L-dopa, 50 uM PLP, 2 mM 2-ME, 50 mM potassium phosphate pH 8.0, 30 °C
T2 construct: gene PP_2552; E. coli BL21(DE3)
T2 sequence (Q88JU5 entry or part of it): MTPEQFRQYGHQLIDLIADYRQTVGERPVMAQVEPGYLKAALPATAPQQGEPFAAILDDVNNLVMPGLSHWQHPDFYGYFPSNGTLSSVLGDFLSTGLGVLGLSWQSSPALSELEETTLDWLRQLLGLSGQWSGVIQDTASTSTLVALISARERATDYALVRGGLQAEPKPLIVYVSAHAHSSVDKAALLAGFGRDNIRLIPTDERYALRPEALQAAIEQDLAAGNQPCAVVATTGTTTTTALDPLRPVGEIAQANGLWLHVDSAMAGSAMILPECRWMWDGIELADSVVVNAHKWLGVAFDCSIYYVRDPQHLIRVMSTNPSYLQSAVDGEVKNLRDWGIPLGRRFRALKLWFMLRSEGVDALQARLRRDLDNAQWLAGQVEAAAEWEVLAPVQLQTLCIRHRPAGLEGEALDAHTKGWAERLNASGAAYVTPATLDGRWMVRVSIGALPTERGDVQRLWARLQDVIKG

[2] = molecular target: T3, AADC (aromatic amino acid decarboxylase) (Pseudomonas putida, UniProt Q88JU5); assay: HPLC of dopamine formation, cell-free extract; assay type: biochemical; conditions: 1 mM L-dopa, 50 uM PLP, 2 mM 2-ME, 50 mM potassium phosphate pH 8.0, 30 °C
T3 construct: gene PP_2552; full-length, untagged, from pET-3a (pAADC) in E. coli BL21(DE3)
T3 sequence (Q88JU5 entry or part of it): as above

PPIase KS-1-AADC [3] = molecular target: T1, PPIase KS-1-AADC; assay: HPLC (AccQ-tag) of phenylethylamine produced by recombinant E. coli cells; assay type: cell-based; conditions: 1 mM L-phenylalanine, M9 minimal medium, 25 °C, whole cells

T1 sequence (Q88JU5 entry or part of it): as above

SMILES: N[C@@H](Cc1ccc(O)c(O)c1)C(=O)O [L-dopa]
- HPLC of dopamine formation, cell-free extract (PPIase KS-1-AADC [1]): the AADC activity toward L-dopa was significantly higher in PPIase KS−1-AADC as compared to NusA-AADC
- HPLC of dopamine formation, cell-free extract (NusA-AADC): the AADC activity toward L-dopa was significantly higher in PPIase KS−1-AADC as compared to NusA-AADC
- HPLC of dopamine formation, cell-free extract [2]: The AADC activity was measured using these cell-free extracts

SMILES: N[C@@H](Cc1ccccc1)C(=O)O [L-phenylalanine]
- HPLC (AccQ-tag) of phenylethylamine produced by recombinant E. coli cells (PPIase KS-1-AADC [3]): Phenylethylamine accumulation was also higher in PPIase KS−1-AADC-producing strain

From article PMC8712285, “Thermococcus sp. KS-1 PPIase as a fusion partner improving soluble production of aromatic amino acid decarboxylase” (AMB Express, 2021)
